Like-named read-outs stand apart in the source and are kept apart here. One block for each molecule: values may come before it.
Experiments:
NCI-H460 cells [1] = experiment: Cytotoxicity in NCI-H460 cells (lactate dehydrogenase assay); type: cell-based, human; conditions: 48 h
Description: Cytotoxicity of a test compound (Compound B) was determined using a lactate dehydrogenase assay kit (Cayman Chemicals, MI) as per the manufacturer's instructions with some minor modifications. Briefly, 20,000 cells/well in complete RPMI-1640 media were seeded in a 96-well tissue culture plate and incubated overnight at 37° C. and 5% CO2. The test compound was added to the wells in triplicate at the desired concentrations. Doxorubicin and/or 1% Triton-X were used as a positive control. After 48 h, the media was removed and assayed for lactate dehydrogenase in a colorimetric assay. Optical density was measured on a microplate reader (BMG Labtech., Germany) at 490 nM. Data were analyzed using Graphpad Prism (Graphpad software; San Diego Calif.).

Stim2 = Stim2 mRNA expression in NCI-H460 cells by PCR; type: cell-based, human; conditions: 1 and 10 μM, qualitative PCR
Description: (§1) Orai1 and Stim1 expression in non-small cell lung cancer cell lines was confirmed by PCR (polymerase chain reaction). Briefly, 5×10^6 cells treated with desired concentrations of the test article were harvested, pelleted, and resuspended in 1 ml TRI Reagent (Sigma, St. Louis, Mo.) and total RNA was extracted as per the manufacturer's instructions. cDNA was prepared using the First Strand cDNA synthesis and amplified using the following primer pairs:
(§2) Bands were resolved by agarose gel electrophoresis and visualized using SYBR safe DNA gel stain.
(§3) Orai and Stim expressions were measured using the methodology described in Example 1 above in NCI-H460 cells but with 1 and 10 μM of compound B.

NCI-H460 cells [2] = experiment: In-vitro cell proliferation assay in NCI-H460 cancer cell line (MTT); type: cell-based, human; conditions: for IC50: read-out: NCI-H460 Cell line assay G1 50 nM
Description: Growth inhibition assays were carried out using 10% FBS supplemented media. Cells were seeded at a concentration of 5000 cells/well in a 96-well plate. Test compound at a concentration range from 0.01 to 10000 nM were added after 24 h. Growth was assessed using the 3-[4,5-dimethylthiazol-2-yl]-2,5-diphenyltetrazolium bromide (MTT) dye reduction test at 0 h (prior to the addition of the test compound) and 48 h after the addition of test compound. Absorbance was read on a Fluostar Optima (BMG Labtech, Germany) at a wave length of 450 nm. Data were analysed using GraphPad Prism. IC-50 for each compound was determined based on the % inhibition due to the test compound compared to the control.
For methods of cell proliferation assay, see, for example, Mosmann. T., Journal of Immunological Methods, 65(1-2), 55-63, (1983).
The effect of CRAC and/or STIM protein on the proliferation and viability of lung cancer cells was determined as follows.
For Methodology Refer 1C.

Orai1 = Orai1 mRNA expression in NCI-H460 cells by PCR; type: cell-based, human; conditions: 1 and 10 μM, qualitative PCR
Description: as §1, §2, §3

Stim1 = Stim1 mRNA expression in NCI-H460 cells by PCR; type: cell-based, human; conditions: 1 and 10 μM, qualitative PCR
Description: as §1, §2, §3

CRAC channels [3] = molecular target: T1, CRAC channels (Homo sapiens (Human), UniProt Q96D31); experiment: In-vitro CRAC channel inhibition assay in Jurkat cells (thapsigargin-induced calcium influx); type: cell-based
Description: Inhibition of CRAC channels was determined following thapsigargin (Sigma, Cat # T9033) induced endoplasmic calcium release in Jurkat cells. (see Yasurio Yonetoky et. al Bio. & Med. Chem. 14 (2006) 4750-4760). Cells were centrifuged and resuspended in equal volumes ° f Ca^2+ and Mg^2+ free Hanks buffer and Fluo-8 NW dye (ABD Bioquest, Inc., Sunnyvale, Calif.) loading solution at 2×10^5 cells/100 μl/well in 96-well black plate. Plate is incubated at 37° C./5% CO2 for 30 mM followed by further 15 mM incubation at room temperature. Test compounds (DMSO stocks diluted in Ca^2+ and Mg^2+ free Hanks buffer) at desired concentrations were added to the wells and incubated for […]. Thapsigargin (1 μM final concentration) was added to the wells and incubated for 15 min to inhibit the Sarco-endoplasmic reticulum Ca^2+ ATPase pump thereby depleting endoplasmic calcium and raising cytosolic calcium concentrations. Store-operated calcium entry was initiated by adding extracellular Ca^2+ to a final concentration of 1.8 mM. Fluorescence was monitored over […] on a plate reader (BMG Labtech., Germany) with excitation at 485 nm and an emission wavelength at 520 nm. Data were analyzed using GraphPad Prism. IC50 for each compound was determined based on the percent inhibition of thapsigargin-induced calcium influx into cells.

[4] = test system: NCI-H460 human non-small cell lung cancer xenografts; experiment: Anti-tumor efficacy in female Balb/c nude mice bearing NCI-H460 xenografts; type: in vivo
CRAC channels [5] = molecular target: T1, CRAC channels; experiment: In-vitro CRAC channel inhibition assay in NCI-H460 cancer cell line (thapsigargin-induced calcium influx); type: cell-based; conditions: NCI-H460 cells
Description: Inhibition of CRAC channels was determined following thapsigargin (Sigma, Cat # T9033) induced endoplasmic calcium release in NCI-H460 cells (National Centre For Cell Science (NCCS), Pune).
Cells (30,000 per well) were plated overnight in complete RPMI medium. Medium was substituted with Ca^2+ and Mg^2+ free Hanks buffer and Fluo-8 NW dye (ABD Bioquest, Inc., Sunnyvale, Calif.) loading solution in 96-well black plate. Plate was incubated at 37° C./5% CO2 for 30 min followed by further 15 mM incubation at room temperature. Test compounds (DMSO stocks diluted in Ca^2+ and Mg^2+ free Hanks buffer) at desired concentrations were added to the wells and incubated for 15 min. Thapsigargin (1 μM final concentration) was added to the wells and incubated for 15 min to inhibit the Sarco-endoplasmic reticulum Ca^2+ ATPase pump thereby depleting endoplasmic calcium and raising cytosolic calcium concentrations. Store-operated calcium entry was initiated by adding extracellular Ca^2+ to a final concentration of 2.5 mM. Fluorescence was monitored over 30 mM on a plate reader (BMG Labtech., Germany) with excitation at 485 nm and an emission wavelength at 520 nm. Data were analyzed using GraphPad Prism. IC50 for each compound was determined based on the percent inhibition of Thapsigargin-induced calcium influx into cells.
For Methodology Refer 1B.

[6] = Body weight in the NCI-H460 xenograft study; type: in vivo; conditions: Balb/c nude mice
TNFα [7] = experiment: Inhibition of TNFα release in human whole blood; type: cell-based; conditions: Concanavalin A + PMA, 20 h, read-out: IC 50 Human Whole Blood TNFα
Description: (§4) Inhibition of cytokine IL-2, IL-4, IL-5 and TNF α was determined as described below.
(§5) Freshly collected HWB was diluted with RPMI medium (1:4.5) and added to a 96-well plate. Wells were incubated with desired concentrations of the inhibitor for 15 min. Cytokine release was induced by the addition of Concanavalin A (25 μg/ml)+Phorbol Myristate Acetate (50 ng/ml) for IL-2 & TNFα or with Phytohemagglutinin (5 μg/ml) for IL-4 & IL-5 and incubated at 37° C. in an atmosphere containing […]. Supernatant was collected after 20 h (IL-2 & TNFα) or 48 h (IL-4 & IL-5) for estimation of cytokines by ELISA. Data were analysed using GraphPad Prism. IC50 values for each compound were determined based on the percent inhibition due to the test compound compared to the control.

IL-5 [8] = experiment: Inhibition of IL-5 release in human whole blood; type: cell-based; conditions: Phytohemagglutinin, 48 h, read-out: IC 50 Human Whole Blood IL-5
Description: as §4, §5

IL-2 [9] = experiment: Inhibition of IL-2 release in human whole blood; type: cell-based; conditions: Concanavalin A + PMA, 20 h, read-out: IC 50 Human Whole Blood IL-2
Description: as §4, §5

TNFα [10] = experiment: Inhibition of TNFα release in PBMC; type: cell-based; conditions: Homo sapiens, Concanavalin A + PMA, 20 h, read-out: IC 50 PBMC TNFα
Description: as §4
as §5, with “PBMC from freshly” for “Freshly”, “were isolated by density gradient using Histopaque” for “was diluted with RPMI medium (1:4.5)”, “seeded in” for “added to”, “Cells” for “Wells”

IL-2 [11] = experiment: Inhibition of IL-2 release in PBMC; type: cell-based; conditions: Homo sapiens, Concanavalin A + PMA, 20 h, read-out: IC 50 PBMC IL-2
Description: as §4
as §5, with “PBMC from freshly” for “Freshly”, “were isolated by density gradient using Histopaque” for “was diluted with RPMI medium (1:4.5)”, “seeded in” for “added to”, “Cells” for “Wells”

IL-5 [12] = experiment: Inhibition of IL-5 release in PBMC; type: cell-based; conditions: Homo sapiens, Phytohemagglutinin, 48 h, read-out: IC 50 PBMC IL-5
Description: as §4
as §5, with “PBMC from freshly” for “Freshly”, “were isolated by density gradient using Histopaque” for “was diluted with RPMI medium (1:4.5)”, “seeded in” for “added to”, “Cells” for “Wells”

IL-4 [13] = experiment: Inhibition of IL-4 release in human whole blood; type: cell-based; conditions: Phytohemagglutinin, 48 h, read-out: IC 50 Human Whole Blood IL-4
Description: as §4, §5

IL-4 [14] = experiment: Inhibition of IL-4 release in PBMC; type: cell-based; conditions: Homo sapiens, Phytohemagglutinin, 48 h, read-out: IC 50 PBMC IL-4
Description: as §4
as §5, with “PBMC from freshly” for “Freshly”, “were isolated by density gradient using Histopaque” for “was diluted with RPMI medium (1:4.5)”, “seeded in” for “added to”, “Cells” for “Wells”

[15] = test system: CRAC channels over the voltage operated channels (VOC); conditions: Yonetoky et al.; cited from earlier work
[16] = 30 mg/kg orally BID for 15 days

T1 sequence (Q96D31 whole entry): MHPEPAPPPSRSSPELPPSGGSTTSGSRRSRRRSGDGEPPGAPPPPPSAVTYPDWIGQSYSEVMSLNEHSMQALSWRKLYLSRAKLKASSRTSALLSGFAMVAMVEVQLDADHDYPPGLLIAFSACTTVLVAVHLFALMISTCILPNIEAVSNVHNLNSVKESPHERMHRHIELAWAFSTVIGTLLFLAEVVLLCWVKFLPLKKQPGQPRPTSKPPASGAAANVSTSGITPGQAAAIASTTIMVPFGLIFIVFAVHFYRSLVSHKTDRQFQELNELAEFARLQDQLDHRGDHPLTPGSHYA

Compound: Cc1nnsc1C(=O)Nc1ccc(-n2nc(C(F)(F)F)cc2C(F)(F)F)cc1 [YM-58483]
selective index for CRAC channels over VOC [15]: 31

Compound: CC(=O)O[C@H]1C(=O)[C@@]2(C)[C@H]([C@H](OC(=O)c3ccccc3)[C@]3(O)C[C@H](OC(=O)[C@H](O)[C@@H](NC(=O)c4ccccc4)c4ccccc4)C(C)=C1C3(C)C)[C@]1(OC(C)=O)CO[C@@H]1C[C@@H]2O [taxol, Paclitaxel, reference compound]
reduction in tumor growth ([4]; intravenous administration): 36%
change in body weight ([6]; intravenous administration): significant reduction

Second part, led by results:

IC50 (NCI-H460 cells [2]; Homo sapiens, NCI-H460, 48 h): 270 nM
inhibition at 1 µM (CRAC channels [3]): 100%
Compound: O=C(Cc1ccc2ncccc2c1)Nc1ccc(-n2nc(C3CC3)cc2C2CC2)cc1 [Example 9, N-[4-(3,5-dicyclopropyl-1H-pyrazol-1-yl)phenyl]-2-(quinolin-6-yl)acetamide]
Cytotoxicity (lactate dehydrogenase in the media) (NCI-H460 cells [1]): not cytotoxic
mRNA expression of Stim2 (Stim2): significantly reduced
mRNA expression of Orai1 (Orai1): significantly reduced
mRNA expression of Stim1 (Stim1): significantly reduced

IC50 (NCI-H460 cells [2]; 48 h): 148 nM
IC50 (NCI-H460 cells [2]; Homo sapiens, NCI-H460, 48 h): < 200 nM
inhibition at 1 µM (CRAC channels [5]; 1 μM, read-out: NCI-H460 Cell Ca assay % inhibition @ 1 μM): 100%
IC50 (CRAC channels [5]; read-out: NCI-H460 Cell Ca assay IC 50 nM): < 200 nM
inhibition at 1 µM (CRAC channels [3]): 69.5%
Compound: O=C(Cn1cnc2ccccc21)Nc1ccc(-n2nc(C(F)(F)F)cc2C2CC2)cc1 [Example 19, 2-(1H-benzo[d]imidazol-1-yl)-N-{4-[5-cyclopropyl-3-(trifluoromethyl)-1H-pyrazol-1-yl]phenyl}acetamide]
inhibition at 1 µM (NCI-H460 cells [2]; Homo sapiens, NCI-H460, 1 uM, 48 h): 100%
inhibition at 10 µM (NCI-H460 cells [2]; Homo sapiens, NCI-H460, 10 μM, 48 h): 83.6%
reduction in tumor growth [4, 16]: 32%
change in body weight [6, 16]: without any significant change

IC50 (TNFα [7]): 35.6 nM
IC50 (IL-5 [8]): 164 nM
IC50 (IL-2 [9]): 40.7 nM
IC50 (TNFα [10]): 138 nM
IC50 (IL-2 [11]): 383 nM
IC50 (IL-5 [12]): 149 nM
IC50 (IL-4 [13]): 1230 nM
IC50 (CRAC channels [3]): 39.2 nM
inhibition at 1 µM (CRAC channels [3]): 100%
IC50 (IL-4 [14]): 540 nM
Compound: O=C(Cn1nnc2ccccc21)Nc1ccc(-n2nc(C(F)(F)F)cc2C2CC2)cc1 [Example 20, 2-(1H-benzo[d][1,2,3]triazol-1-yl)-N-{4-[5-cyclopropyl-3-(trifluoromethyl)-1H-pyrazol-1-yl]phenyl}acetamide]

— US8993612B2, “Modulators of calcium release-activated calcium channel and methods for treatment of non-small cell lung cancer” (Rhizen Pharmaceuticals SA, priority 2009, dated 2015)
